Entries after “also recorded” stand apart in the source; their conditions may differ. Like-named read-outs stand apart in the source and are kept apart here.
Legend:
[1] = test system: CQ-sensitive 3D7 strain of P. falciparum; assay: SYBR green I-based parasite growth inhibition assay, 3D7 strain; type: cell-based, Plasmodium falciparum; details: for EC50: Plasmodium falciparum
[2] = test system: asexual blood stages of P. falciparum; assay: Life cycle stage specific action by microscopy of Giemsa-stained thin smears; type: cell-based, Plasmodium falciparum; details: 10 μM, 24 h; for stage specific action on asexual blood stages (ring, trophozoite, schizont): treated at early ring, mid-trophozoite or mid-schizont; for vacuolation in treated parasites: Giemsa-stained thin smears
Description: The life cycle stage specific action of (±)-moxiquindole was determined by treatment of parasites at different time points followed by microscopic analysis of Giemsa-stained thin blood smears. Stage proportions were calculated for each asexual parasite stage in the drug treated wells relative to the same stage in the negative control wells.
The inhibitory effects of active compounds or reference drugs on parasite development and schizont rupture were determined by quantitative light microscopy as previously described (Lee et al., 2015). Briefly, synchronized cultures (1.5% hematocrit and 3% parasitemia) at different time-points (early rings, mid trophozoites and schizonts) were treated with either test compound or controls at 10 μM final concentration for 24 h under regular culture conditions. Following treatment, Giemsa-stained thin smears were prepared and parasites were counted in 1,000 erythrocytes per treatment. Stage proportions in test wells relative to solvent control wells were calculated and used to assess the in vitro effects of each compound on trophozoites and schizont development as well as merozoite egress and invasion.

[3] = test system: vacuolar lipid dynamics in P. falciparum; assay: Effect on vacuolar lipid dynamics (Oil Red O staining); type: cell-based, Plasmodium falciparum; details: trophozoite stage parasites, 24 h
Description: Because cellular vacuolation may result from perturbation of intracellular lipid content, we investigated the effect of (±)-moxiquindole on vacuolar lipid dynamics using fluorescent Oil red O as lipid stain.
The effect of the compounds on intracellular lipid dynamics was assessed by measurement of intracellular lipid content using Oil Red O. Briefly, early rings or late trophozoite stage parasites (30 hpi) were treated with the compounds or controls for 24 h under regular culture conditions. Following treatment, inhibitors were removed by centrifugation at 2500 rpm for 5 min and pellets were washed in equal volumes of 1×PBS. The parasites were fixed with 4% paraformaldehyde for 30 min at room temperature and pelleted at 2500. Three volumes of Oil Red O (ORO) stock solution (5 mg/mL in 100% isopropanol) were diluted in two volumes of distilled water and filtered prior to use. About 100 μL of the ORO were added to parasite pellets in the tube and incubated for 30 minutes. Parasites were pelleted and washed twice in distilled water. Thereafter, parasites were deposited on pre-cleaned coverslips and air dried. Dried coverslips were mounted in DAPI antifade reagent onto cleaned slides, air dried and viewed under a 100× oil immersion lens and images acquired using a Leica DM1000 fluorescence microscope suite (LAS version 4.5).

[4] = test system: hemoglobin metabolism in P. falciparum ring and trophozoite stage parasites; assay: Effect on hemoglobin degradation (intraparasitic hemoglobin content); type: cell-based, Plasmodium falciparum; details: 10 μM, 24 h, relative to E64-treated cultures
Description: Owing to the fact that the DSIIQs are constructed from the THIQ pharmacophore of naphthylisoquinolines, which appear to target proteases involved in hemoglobin degradation, we assessed the effect of this DSIIQ on hemoglobin metabolism. Briefly, tightly synchronized ring and trophozoite stage parasites were treated with test compounds for 24 h followed by parasite isolation and quantification of the intraparasitic hemoglobin contents.
To investigate drug effects on hemoglobin degradation, early ring and mid-trophozoite stage parasites (1.5% hematocrit, 5% parasitemia) were co-cultured with the test compounds or experimental controls (0.1% DMSO, chloroquine, artemisinin NITD609 and E64) at a final concentration of 10 μM. The cultures were incubated at 37° C. and 5% CO2 for 24 h. Following incubation, inhibitors were removed by centrifugation at 1800 rpm for 5 min. The pellets were washed in an equal volume of 1×PBS and re-suspended in same volume of 0.1% saponin (in 1×PBS) for 3 min. Isolated parasites were pelleted at 2500 rpm for 5 min and washed twice in an equal volume of 1×PBS. The resulting parasite pellets were permeabilized by treatment in 20 μL of 1% Triton X-100 (in 1×PBS) for 5 min. Intraparasitic hemoglobin content was measured at 550 nm using a Nanodrop spectrophotometer, and folds increase in intra-parasite hemoglobin content was calculated relative to the E64-treated controls.

[5] = test system: Malaria parasites (ring-stage parasitized erythrocytes); assay: Drug-combination (drug-drug interaction) studies, SYBR-Green I; type: cell-based, Plasmodium falciparum; details: in combination with artemisinin
Description: In view of the overlapping modes of action between the hybrids and some known antimalarial drugs in terms of targeted cellular processes, we investigated the interaction between these compounds at variable combination ratios. Malaria parasites were continuously cultured and synchronized as earlier described prior to the assay.
Briefly, two-fold drug dilutions were prepared using a variable potency ratio drug combination approach, starting at 5EC50A: 0EC50B to 0EC50A: 5EC50B in serum-free medium, where A and B represent the different partner molecules.
The test was run for 72 h and terminated when the untreated parasites were at the early trophozoite stage of the second cycle. Parasite viability was assessed by the SYBR-Green I fluorescence-based assay as earlier described. Dose-response curves and EC50 values of each combination and drug alone were obtained using GraphPad Prism v.5.0 and Microsoft Excel was used to calculate mean EC50 values and the standard error of the mean.

[6] = test system: P. chabaudi-infected mice; assay: Peter's four-day suppressive test (chemosuppressive activity); type: in vivo, Swiss albino mice
Description: Following the encouraging in vitro antiplasmodial activities and cytotoxicity profiles reported above, as well as the ADMET properties of the primary and secondary hits identified in this study, studies were carried out to assess the in vivo efficacy of these compounds in laboratory mice. Chemosuppressive potentials were assessed using the Peter's four-day test whereas the ability of each compound to cure an established plasmodial infection was determined using the Rane's test. To assess the in vivo chemosuppressive potential of the compounds, groups of P. chabaudi-infected mice were treated by ip injection for 3 days following infection using fixed doses of 0.03, 0.3, 3, 10, or 30 mg/kg for each compound. The percent suppression of parasite growth in treated groups was calculated relative to the control group and the growth inhibition curves plotted.
Eight-week old male Swiss albino mice weighing approximately 23±3 g were housed in cages and maintained in a well-ventilated room under standard environmental conditions of temperature at 22-24° C., under a 12 h dark-light cycle, with food and water provided ad libitum.
The animals were allowed one week acclimation before commencement of the study. Three (3) mice were infected with stocked blood containing Plasmodium chabaudi parasites and used as donors. In brief, frozen blood containing the sulfadoxine/pyrimethamine resistant P. c. chabaudi (AS(50S/P) parasites was thawed and about 200 μL parasites were injected intra-peritoneally (i.p) into each of the three mice and parasitemia monitored through blood smear until a 20% threshold was reached. These infected animals then served as donors to the experimental animals. Ethical approval for the study was obtained from the University of Douala Institutional Review Board (N^oIEC-UD/1146/09/2017/A).
In vivo efficacies were conducted following a modification of the Peter's four-day suppressive test as previously described (Lee et al., 2014, Tarkang et al., 2014). Briefly, following parasite passage in donor mice, the mice were euthanized using diethyl ether and P. c. chabaudi infected blood was obtained by cardiac puncture and placed into heparinized tubes. The blood was then diluted with phosphate buffered saline (PBS) and immediately used to infect the experimental mice. Mice were randomly divided into seven (7) groups of 3 animals and each mouse was injected with 1×10^7 infected erythrocytes intraperitoneally (Day 0). The mice were kept for 24 hours to establish infection and Giemsa thin blood smears were prepared to quantify parasites (Day 1). Thereafter, groups 1, 2, 3, 4 and 5 were treated with compounds dissolved in 1×PBS, intraperitoneally at dosages of 30, 10, 3, 0.3 and 0.03 mg/kg body weight, respectively, while groups 6 and 7 were treated with vehicle or chloroquine at 10 mg/kg, respectively for three consecutive days (Day 1-Day 3). Twenty-four (24) and ninety-six (96) hours post-infection, thin blood smears were prepared from each animal with blood obtained from the tail vein, fixed in methanol and stained with 10% Giemsa.
Parasitemia was determined by light microscopy using a 100× objective lens and the following equation: […]
Average percentage chemosuppression was calculated as
Where A is mean parasitemia in negative control and B is mean parasitemia in test group

In the case of C[C@@H]1CC[C@H]2[C@@H](C)C(=O)O[C@@H]3O[C@@]4(C)CC[C@@H]1[C@]32OO4 [Artemisinin, artemisinin], the EC50 ([1]; Pf 3D7, 72 h, read-out: EC50) is reported as 15.9 nM, the “stage specific action on asexual blood stages (ring, trophozoite, schizont)” value (from here on “stage specific action”) [2] is reported as “high proportions of the treated parasite stage at each treatment time-point; also recorded: exhibits inhibitory activities against ring-to-trophozoite development, trophozoite-to-schizont development and schizont rupture” and the “neutral lipid bodies / vacuolar lipid uptake (Oil red O)” value [3] is reported as “no effect on vacuolar lipid uptake”.

Compound COc1cc2c(cc1OC)C1(NCC2)C(=O)Nc2ccc(F)cc21 (stereo not drawn) [Compound 8o, 5-fluoro-6′,7′-dimethoxy-3′,4′-dihydro-2′H-spiro[indoline-3,1′-isoquinolin]-2-one] has a melting point of 98 to 99 °C.

With CC(C)C[C@H](NC(=O)[C@H]1O[C@@H]1C(=O)O)C(=O)NCCCCN=C(N)N (relative stereo) [Compound E64, L-trans-epoxysuccinyl-leucylamido-(4-guanidino)] the “stage specific action” value [2] was “only inhibiting schizont accumulation”, the “intraparasitic hemoglobin content / accumulation” value [4] was “minimal effect on hemoglobin degradation” and the “neutral lipid bodies / vacuolar lipid uptake (Oil red O)” value [3] was “no effect on vacuolar lipid uptake”.

With CCN(CC)CCCC(C)Nc1ccnc2cc(Cl)ccc12 (stereo not drawn) [chloroquine] the EC50 ([1]; 3D7, 72 h) was 13.9 nM, the “stage specific action” value [2] was “rapid accumulation of early rings and trophozoites but not schizonts; also recorded: exhibits inhibitory activities against ring-to-trophozoite development, trophozoite-to-schizont development and schizont rupture” and the “neutral lipid bodies / vacuolar lipid uptake (Oil red O)” value [3] was “devoid of neutral lipid bodies”. The “combination index (CI)” value [5] was 1.183 and the suppression of parasitemia ([6]; 10 mg/kg, compared with 98% by test compounds at 3.0 mg/kg) was “comparable level of suppression of parasitemia”.

Work on COc1cc2c(cc1OC)C1(NCC2)C(=O)Nc2cc(F)c(F)cc21 (stereo not drawn) [Compound 8g, 5,6-difluoro-6′,7′-dimethoxy-3′,4′-dihydro-2′H-spiro[indoline-3,1′-isoquinolin]-2-one] yielded a melting point of 220 to 221 °C.

For C[C@H]1Cc2c([nH]c3cc(Cl)c(F)cc23)[C@@]2(N1)C(=O)Nc1ccc(Cl)cc12 [NITD609], the “stage specific action” value [2] was “exhibits inhibitory activities against ring-to-trophozoite development, trophozoite-to-schizont development and schizont rupture” and the “vacuolation in treated parasites” value [2] was “induced vacuolation in parasites”.

In the case of COc1cc2c(cc1OC)C1(NCC2)C(=O)Nc2ccc([N+](=O)[O-])cc21 (stereo not drawn) [Compound 8e, 6′,7′-dimethoxy-5-nitro-3′,4′-dihydro-2′H-spiro[indoline-3,1′-isoquinolin]-2-one], the melting point is reported as 174 to 175 °C.

COc1cc2c(cc1OC)C1(NCC2)C(=O)Nc2ccc(N)cc21 (stereo not drawn) [Compound 8f, 5-amino-6′,7′-dimethoxy-3′,4′-dihydro-2′H-spiro[indoline-3,1′-isoquinolin]-2-one] gave a melting point of 186 to 187 °C.

In the case of COc1cc2c(cc1OC)C1(NC(C)C2)C(=O)Nc2ccc(Cl)cc21 (racemic) [Compound 11, 5-chloro-6′,7′-dimethoxy-3′-methyl-3′,4′-dihydro-2′H-spiro[indoline-3,1′-isoquinolin]-2-one], the “times more potent than (±)-moxiquindole” value ([1]; Pf 3D7) is reported as 80 times, the “fold more active than the primary hit (±)-moxiquindole” value ([1]; Pf 3D7 EC50 ratio) is reported as 77 fold and the EC50 ([1]; Pf 3D7, 72 h, read-out: EC50) is reported as 24 nM. The “stage specific action” value [2] was “exhibits inhibitory activities against ring-to-trophozoite development, trophozoite-to-schizont development and schizont rupture”, the “vacuolation in treated parasites” value [2] was “induced vacuolation in parasites” and the “intraparasitic hemoglobin content / accumulation” value [4] was “accumulation of intra-parasitic hemoglobin”. The suppression of parasitemia ([6]; 0.3 mg/kg ip) was “slight advantage over (±)-moxiquindole”, the suppression of parasitemia ([6]; 3.0 mg/kg ip) was 98% and the ED50 ([6]; Mus musculus, ip, 72 h, read-out: suppressive ED50) was 0.049 mg/kg.

For COc1cc2c(cc1OC)C1(NCC2)C(=O)N(Cc2ccc(Br)cc2)c2ccc(Cl)cc21 (stereo not drawn) [Compound 8k], the “parasite growth inhibition in primary assays” value ([1]; primary screening at 10 μM, Pf 3D7, 72 h) was roughly 52%.
